Test [1] concerns the target T1, human GCGR (Homo sapiens, UniProt P47871).
T1 construct: expressed in transfected cells; grown with Blasticidin and Hygromycin
Nature of the test: cAMP activity assay, cells expressing human GCGR.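 For all read-outs here: cAMP production read by luminescence after one hour of peptide exposure at room temperature, EC50 from logistic curve fit, native glucagon and GLP-1 as control peptides.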 It counts as cell-based. As to conditions: for GCGR/GLP1R ratio: Table 5, ratio of hGCGR EC50 to hGLP1R EC50.

Test [2] concerns the target human GLP1R (Homo sapiens, UniProt P43220). As to the kind of experiment: cAMP activity assay, cells expressing human GLP1R. Type of test: cell-based.
Experimental: Activity of the incretin peptides or the conjugates at the Glucagon receptor (GCGR) and GLP-1 receptor (GLP1R) may be measured in a cAMP activity assay as follows.
Peptides are dissolved in 100% DMSO and serially diluted to generate 10 point titrations. The peptide solutions are then transferred into 384-well assay plates (150 nL/well). Assay ready frozen cells expressing human GLP1R or human GCGR are suspended in growth media consisting of DMEM medium (GIBCO), 10% FBS (GIBCO), 1×NEAA(GIBCO), 1×P/S (GIBCO), 10 μg/mL Blasticidin (GIBCO) and 200 μg/mL Hygromycin (GIBCO). […] The cell suspensions (15 μL) are then added to the assay plates containing the peptide solutions (30,000 cells/well for human GCGR; 10,000 cells/well for human GLP1R). The cells are incubated for one hour at room temperature in the dark.
Production of cAMP may be determined using HitHunterr cAMPXS kits (DiscoverX) following the manufacturer's protocol. The plates are incubated for overnight at room temperature in the dark. Luminescence may be measured using an EnVision Multilabel plate reader (Perkin Elmer). Native GLP-1 and Glucagon (Bachem) may be used as control peptides. EC50 values may be calculated using uses a 4 parameter logistic fit based on the Levenberg-Marquardt algorithm.
The mark [3] stands for this setting: Table 5, incretin peptides, cAMP, read-out: hGLP1R EC50.

Like-named read-outs stand apart in the source and are kept apart here.

The term EC50 denotes the concentration at which the effect is half-maximal.

T1 sequence (P47871 26-477): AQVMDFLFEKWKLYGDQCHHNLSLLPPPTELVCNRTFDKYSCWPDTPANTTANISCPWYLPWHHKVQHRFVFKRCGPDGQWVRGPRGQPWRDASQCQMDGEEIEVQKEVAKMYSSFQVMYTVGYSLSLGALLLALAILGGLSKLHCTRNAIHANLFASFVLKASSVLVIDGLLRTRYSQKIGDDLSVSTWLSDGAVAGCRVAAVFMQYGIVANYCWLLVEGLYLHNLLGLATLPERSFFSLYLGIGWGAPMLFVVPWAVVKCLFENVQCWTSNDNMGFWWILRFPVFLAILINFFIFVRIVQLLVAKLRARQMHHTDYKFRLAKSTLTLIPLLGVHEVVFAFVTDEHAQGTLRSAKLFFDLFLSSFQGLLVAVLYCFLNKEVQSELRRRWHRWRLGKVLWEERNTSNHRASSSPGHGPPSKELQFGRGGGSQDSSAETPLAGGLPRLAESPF
Chain of human GLP1R (P43220 24-463): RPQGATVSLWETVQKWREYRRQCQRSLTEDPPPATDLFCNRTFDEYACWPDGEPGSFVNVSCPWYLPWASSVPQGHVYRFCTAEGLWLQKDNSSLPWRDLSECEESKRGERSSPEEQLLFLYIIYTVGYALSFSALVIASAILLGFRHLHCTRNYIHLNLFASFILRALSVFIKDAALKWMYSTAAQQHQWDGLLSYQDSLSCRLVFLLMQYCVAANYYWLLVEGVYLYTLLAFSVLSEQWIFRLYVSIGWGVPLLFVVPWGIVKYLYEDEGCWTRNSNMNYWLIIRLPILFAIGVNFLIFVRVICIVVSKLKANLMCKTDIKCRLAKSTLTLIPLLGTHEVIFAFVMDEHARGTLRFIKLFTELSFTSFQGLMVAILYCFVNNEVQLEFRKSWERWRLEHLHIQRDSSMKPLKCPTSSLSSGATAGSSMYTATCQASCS

As to `CCCCCCCCCCCCCCCC(=O)N[C@@H](CCC(=O)N[C@@H](CCC(=O)NCCCC[C@H](NC(=O)[C@H](CC(=O)O)NC(=O)[C@H](CO)NC(=O)[C@@H](NC(=O)[C@H](Cc1ccccc1)NC(=O)[C@@H](NC(=O)CNC(=O)[C@H](CCC(N)=O)NC(=O)C(C)(C)NC(=O)[C@@H](N)Cc1c[nH]cn1)[C@@H](C)O)[C@@H](C)O)C(=O)N[C@@H](CO)C(=O)N[C@@H](CCCCN)C(=O)N[C@@H](Cc1ccc(O)cc1)C(=O)N[C@@H](CC(C)C)C(=O)N[C@@H](CC(=O)O)C(=O)NC(C)(C)C(=O)N[C@@H](CCCNC(=N)N)C(=O)N[C@@H](C)C(=O)N[C@@H](C)C(=O)N[C@@H](CCC(N)=O)C(=O)N[C@@H](CC(=O)O)C(=O)N[C@@H](Cc1ccccc1)C(=O)N[C@H](C(=O)N[C@@H](CCCCN=[N+]=[N-])C(=O)N[C@@H](Cc1c[nH]c2ccccc12)C(=O)N[C@@H](CC(C)C)C(=O)N[C@@H](CCS(C)(=O)=O)C(=O)N[C@@H](CCCCN)C(=O)NCC(=O)N[C@@H](CCCNC(=N)N)C(=O)NCC(N)=O)C(C)C)C(=O)O)C(=O)O` [PEP3], the EC50 is 0.07 nM in test [1] and 0.02 nM in test [2]. The GCGR/GLP1R ratio in test [1] is 4.6.
On to `CCCCCCCCCCCCCCCC(=O)N[C@@H](CCC(=O)N[C@@H](CCC(=O)NCCCC[C@H](NC(=O)[C@H](CC(=O)O)NC(=O)[C@H](CO)NC(=O)[C@@H](NC(=O)[C@H](Cc1ccccc1)NC(=O)[C@@H](NC(=O)CNC(=O)[C@H](CCC(N)=O)NC(=O)C(C)(C)NC(=O)[C@@H](N)Cc1c[nH]cn1)[C@@H](C)O)[C@@H](C)O)C(=O)N[C@@H](CO)C(=O)N[C@@H](CCCCN)C(=O)N[C@@H](Cc1ccc(O)cc1)C(=O)N[C@@H](CC(C)C)C(=O)N[C@@H](CC(=O)O)C(=O)NC(C)(C)C(=O)N[C@@H](CCCNC(=N)N)C(=O)N[C@@H](CCCNC(=N)N)C(=O)N[C@@H](C)C(=O)N[C@@H](CCC(N)=O)C(=O)N[C@@H](CC(=O)O)C(=O)N[C@@H](Cc1ccccc1)C(=O)N[C@H](C(=O)N[C@@H](CCC(N)=O)C(=O)N[C@@H](Cc1c[nH]c2ccccc12)C(=O)N[C@@H](CC(C)C)C(=O)N[C@@H](CC(C)C)C(=O)N[C@@H](CC(=O)O)C(=O)N[C@H](C(=O)N[C@@H](CCCCN=[N+]=[N-])C(=O)N[C@@H](CCC(N)=O)C(=O)O)[C@@H](C)O)C(C)C)C(=O)O)C(=O)O` [PEP6], for which the figures for the EC50 in test [1] and in test [2] were 0.07 nM and 0.17 nM, respectively.
As for `CCCCCCCCCCCCCCCC(=O)N[C@@H](CCC(=O)N[C@@H](CCC(=O)NCCCC[C@H](NC(=O)[C@H](CC(=O)O)NC(=O)[C@H](CO)NC(=O)[C@@H](NC(=O)[C@H](Cc1ccccc1)NC(=O)[C@@H](NC(=O)CNC(=O)[C@H](CCC(N)=O)NC(=O)C(C)(C)NC(=O)[C@@H](N)Cc1c[nH]cn1)[C@@H](C)O)[C@@H](C)O)C(=O)N[C@@H](CO)C(=O)N[C@@H](CCCCN)C(=O)N[C@@H](Cc1ccc(O)cc1)C(=O)N[C@@H](CC(C)C)C(=O)N[C@@H](CC(=O)O)C(=O)NC(C)(C)C(=O)N[C@@H](CCCNC(=N)N)C(=O)N[C@@H](C)C(=O)N[C@@H](C)C(=O)N[C@@H](CCC(N)=O)C(=O)N[C@@H](CC(=O)O)C(=O)N[C@@H](Cc1ccccc1)C(=O)N[C@H](C(=O)N[C@@H](CCCCN=[N+]=[N-])C(=O)N[C@@H](Cc1c[nH]c2ccccc12)C(=O)N[C@@H](CC(C)C)C(=O)N[C@@H](CCS(C)(=O)=O)C(=O)N[C@@H](CC(=O)O)C(=O)N[C@H](C(N)=O)[C@@H](C)O)C(C)C)C(=O)O)C(=O)O` [PEP10], in test [1], a half-maximal response (EC50) required 0.02 nM and the GCGR/GLP1R ratio was determined as 0.7. The compound further had an EC50 in test [2] of 0.03 nM.
As for `CCCCCCCCCCCCCCCC(=O)N[C@@H](CCC(=O)N[C@@H](CCC(=O)NCCCC[C@H](NC(=O)[C@H](CC(=O)O)NC(=O)[C@H](CO)NC(=O)[C@@H](NC(=O)[C@H](Cc1ccccc1)NC(=O)[C@@H](NC(=O)CNC(=O)[C@H](CCC(N)=O)NC(=O)[C@@H](CO)NC(=O)[C@@H](N)Cc1c[nH]cn1)[C@@H](C)O)[C@@H](C)O)C(=O)N[C@@H](CO)C(=O)N[C@@H](CCCCN)C(=O)N[C@@H](Cc1ccc(O)cc1)C(=O)N[C@@H](CC(C)C)C(=O)N[C@@H](CC(=O)O)C(=O)N[C@@H](CCC(=O)O)C(=O)N[C@@H](CCCNC(=N)N)C(=O)N[C@@H](C)C(=O)N[C@@H](C)C(=O)N[C@@H](CCC(N)=O)C(=O)N[C@@H](CC(=O)O)C(=O)N[C@@H](Cc1ccccc1)C(=O)N[C@H](C(=O)N[C@@H](CCCCN=[N+]=[N-])C(=O)N[C@@H](Cc1c[nH]c2ccccc12)C(=O)N[C@@H](CC(C)C)C(=O)N[C@@H](CC(C)C)C(=O)N[C@@H](CCC(=O)N[C@H](C(N)=O)[C@@H](C)O)C(=O)O)C(C)C)C(=O)O)C(=O)O` [PEP11], in test [1], it took 0.03 nM to reach a half-maximal effect (EC50) and the GCGR/GLP1R ratio came to 0.4. Also, the EC50 in test [2] (setting [3]) came to 0.06 nM.
Turning to `CCCCCCCCCCCCCCCC(=O)N[C@@H](CCC(=O)N[C@@H](CCC(=O)NCCCC[C@H](NC(=O)[C@H](CC(=O)O)NC(=O)[C@H](CO)NC(=O)[C@@H](NC(=O)[C@H](Cc1ccccc1)NC(=O)[C@@H](NC(=O)CNC(=O)[C@H](CCC(N)=O)NC(=O)[C@@H](CO)NC(=O)[C@@H](N)Cc1c[nH]cn1)[C@@H](C)O)[C@@H](C)O)C(=O)N[C@@H](CO)C(=O)N[C@@H](CCCCN)C(=O)N[C@@H](Cc1ccc(O)cc1)C(=O)N[C@@H](CC(C)C)C(=O)N[C@@H](CC(=O)O)C(=O)N[C@@H](CC(N)=O)C(=O)N[C@@H](CCCCN)C(=O)N[C@@H](CCCNC(=N)N)C(=O)N[C@@H](C)C(=O)N[C@@H](CCC(N)=O)C(=O)N[C@@H](CC(=O)O)C(=O)N[C@@H](Cc1ccccc1)C(=O)N[C@H](C(=O)N[C@@H](CCCCN=[N+]=[N-])C(=O)N[C@@H](Cc1c[nH]c2ccccc12)C(=O)N[C@@H](CC(C)C)C(=O)N[C@@H](CC(C)C)C(=O)N[C@@H](CCC(N)=O)C(=O)N[C@H](C(N)=O)[C@@H](C)O)C(C)C)C(=O)O)C(=O)O` [PEP12], the EC50 came to 0.02 nM in test [1] and 0.07 nM in test [2]. Further, in test [1], the GCGR/GLP1R ratio is given as 0.3.
`CCCCCCCCCCCCCCCC(=O)N[C@@H](CCC(=O)N[C@@H](CCC(=O)NCCCC[C@H](NC(=O)[C@H](CC(=O)O)NC(=O)[C@H](CO)NC(=O)[C@@H](NC(=O)[C@H](Cc1ccccc1)NC(=O)[C@@H](NC(=O)CNC(=O)[C@H](CCC(N)=O)NC(=O)[C@@H](CO)NC(=O)[C@@H](N)Cc1c[nH]cn1)[C@@H](C)O)[C@@H](C)O)C(=O)N[C@@H](CO)C(=O)N[C@@H](CCCCN)C(=O)N[C@@H](Cc1ccc(O)cc1)C(=O)N[C@@H](CC(C)C)C(=O)N[C@@H](CC(=O)O)C(=O)N[C@@H](CO)C(=O)N[C@@H](CCCNC(=N)N)C(=O)N[C@@H](CCCNC(=N)N)C(=O)N[C@@H](C)C(=O)N[C@@H](Cc1c[nH]cn1)C(=O)N[C@@H](CC(=O)O)C(=O)N[C@@H](Cc1ccccc1)C(=O)N[C@H](C(=O)N[C@@H](CCCCN=[N+]=[N-])C(=O)N[C@@H](Cc1c[nH]c2ccccc12)C(=O)N[C@@H](CC(C)C)C(=O)N[C@@H](CC(C)C)C(=O)N[C@@H](CC(N)=O)C(=O)N[C@H](C(N)=O)[C@@H](C)O)C(C)C)C(=O)O)C(=O)O` [PEP13]: in test [1], the response was half-maximal at 0.04 nM (EC50) and the GCGR/GLP1R ratio is recorded as 0.4. Also, in test [2], the response was half-maximal at 0.1 nM (EC50).
`CCCCCCCCCCCCCCCC(=O)N[C@@H](CCC(=O)N[C@@H](CCC(=O)NCCCC[C@H](NC(=O)[C@H](CC(=O)O)NC(=O)[C@H](CO)NC(=O)[C@@H](NC(=O)[C@H](Cc1ccccc1)NC(=O)[C@@H](NC(=O)CNC(=O)[C@H](CCC(N)=O)NC(=O)[C@@H](CO)NC(=O)[C@@H](N)Cc1c[nH]cn1)[C@@H](C)O)[C@@H](C)O)C(=O)N[C@@H](CO)C(=O)N[C@@H](CCCCN)C(=O)N[C@@H](Cc1ccc(O)cc1)C(=O)N[C@@H](CC(C)C)C(=O)N[C@@H](CC(=O)O)C(=O)N[C@@H](CCC(=O)O)C(=O)N[C@@H](CCCNC(=N)N)C(=O)N[C@@H](C)C(=O)N[C@@H](C)C(=O)N[C@@H](CCC(N)=O)C(=O)N[C@@H](CC(=O)O)C(=O)N[C@@H](Cc1ccccc1)C(=O)N[C@H](C(=O)N[C@@H](CCCCNC(=O)COCCOCCNC(=O)CCCCN=[N+]=[N-])C(=O)N[C@@H](Cc1c[nH]c2ccccc12)C(=O)N[C@@H](CC(C)C)C(=O)N[C@@H](CC(C)C)C(=O)N[C@@H](CC(=O)O)C(=O)N[C@H](C(N)=O)[C@@H](C)O)C(C)C)C(=O)O)C(=O)O` [PEP14]: in test [1], it took 0.05 nM to reach a half-maximal effect (EC50) and the GCGR/GLP1R ratio came to 0.8. Moreover, the EC50 in test [2] was 0.07 nM.
As for `CCCCCCCCCCCCCCCC(=O)N[C@@H](CCC(=O)N[C@@H](CCC(=O)NCCCC[C@H](NC(=O)[C@H](CC(=O)O)NC(=O)[C@H](CO)NC(=O)[C@@H](NC(=O)[C@H](Cc1ccccc1)NC(=O)[C@@H](NC(=O)CNC(=O)[C@H](CCC(N)=O)NC(=O)[C@@H](CO)NC(=O)[C@@H](N)Cc1c[nH]cn1)[C@@H](C)O)[C@@H](C)O)C(=O)N[C@@H](CO)C(=O)N[C@@H](CCCCN)C(=O)N[C@@H](Cc1ccc(O)cc1)C(=O)N[C@@H](CC(C)C)C(=O)N[C@@H](CC(=O)O)C(=O)N[C@@H](CCC(=O)O)C(=O)N[C@@H](CCCNC(=N)N)C(=O)N[C@@H](C)C(=O)N[C@@H](C)C(=O)N[C@@H](CCCCNC(=O)COCCOCCNC(=O)CCCCN=[N+]=[N-])C(=O)N[C@@H](CC(=O)O)C(=O)N[C@@H](Cc1ccccc1)C(=O)N[C@H](C(=O)N[C@@H](CCC(N)=O)C(=O)N[C@@H](Cc1c[nH]c2ccccc12)C(=O)N[C@@H](CC(C)C)C(=O)N[C@@H](CC(C)C)C(=O)N[C@@H](CC(=O)O)C(=O)N[C@H](C(N)=O)[C@@H](C)O)C(C)C)C(=O)O)C(=O)O` [PEP16], the EC50 worked out at 0.05 nM in test [1] and 0.06 nM in test [2] (setting [3]). The GCGR/GLP1R ratio in test [1] worked out at 0.8.

These data come from patent publication US20190175744A1, “INSULIN-INCRETIN CONJUGATES” (Merck Sharp & Dohme Corp., priority 2016, published 2019).
